Measured values published in US8937078B2, “Quinazolinones as prolyl hydroxylase inhibitors” (Janssen Pharmaceutica NV, priority 2009, dated 2015).

Key:
[1] = biological target: T1, human PHD2 (PHD2181-417) (Homo sapiens, UniProt Q9GZT9); test: PHD enzymatic assay ([14C]-succinic acid production); assay type: biochemical; settings: PHD2181-417, HIF-1α peptide 10 μM, average of results; read-out: Enzyme pIC50 (converted)
T1 construct: Smt (SUMO) tag (cleaved yes); made in house; host or cells: E. coli BL21 (pBAD vector)
T1 sequence (Q9GZT9 181-417): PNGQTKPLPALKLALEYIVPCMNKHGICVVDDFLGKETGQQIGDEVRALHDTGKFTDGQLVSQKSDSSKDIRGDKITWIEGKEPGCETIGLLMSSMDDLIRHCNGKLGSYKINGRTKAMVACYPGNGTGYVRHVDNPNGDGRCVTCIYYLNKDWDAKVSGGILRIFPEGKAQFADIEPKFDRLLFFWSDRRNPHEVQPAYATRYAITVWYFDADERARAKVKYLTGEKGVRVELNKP
Procedure: Protein production was achieved by expression in BL21 cells grown in Terrific Broth containing 100 μg/ml ampicillin. Cell cultures were inoculated at 37° C. and grown to an OD600 of 0.8. Cultures were induced with 0.1% arabinose and grown overnight at 20° C. with continuous shaking at 225 rpm. Cells were then harvested by centrifugation and stored at −80° C. Cell pellets were suspended in Buffer A (50 mM Tris-HCl pH 7.2, 100 mM NaCl, 100 mM L-arginine, 1 mM TCEP, 0.05% (w/v) NP-40, 50 mM imidazole) followed by the addition of lysozyme and benzonase. Cells were lysed by sonication and the lysate was cleared by centrifugation (15,000 rpm, 90 min, 4° C.). The protein was purified by nickel affinity chromatography using a HisTrap Crude FF column (GE Healthcare). Samples were eluted in Buffer A with a 50-200 mM imidazole gradient. […] The flow-through was then dialyzed into 50 mM MES pH 6.0, 1 mM TCEP, 5 mM NaCl for ion exchange chromatography on a HiTrap SP Cation Exchange column (GE Healthcare). […] Fractions were pooled for further purification by size exclusion chromatography over a Superdex 75 Size Exclusion Column (GE Healthcare). Final protein was concentrated to 4 mg/ml and dialyzed in 10 mM PIPES pH 7.0, 100 mM NaCl, 0.5 mM TCEP.
(10 μM, California Peptide Research Inc., Napa, Calif.), and [5-^14C]-2-oxoglutaric acid (50 mCi/mmol, Moravek Chemicals, Brea, Calif.) in reaction buffer (40 mM Tris-HCl, pH 7.5, 0.4 mg/ml catalase, 0.5 mM DTT, 1 mM ascorbate) for 10 minutes. The reaction was stopped by addition of 50 μl of 70 mM H3PO4 and 50 μl of 500 mM NaH2PO4, pH3.2. Detection of [^14C]-succinic acid was achieved by separating from [5-^14C]-2-oxoglutaric acid by incubating the reaction mixture with 100 μl of 0.16 M DNP prepared in 30% perchloric acid. Next, 50 μl of unlabeled 20 mM 2-oxoglutaric acid/20 mM succinic acid, serving as carrier for the radioactivity, was added to the mixture, and was allowed to proceed for 30 minutes at room temperature. The reaction was then incubated with 50 μl of 1 M 2-oxoglutaric acid for 30 additional minutes at room temperature to precipitate the excess DNP. The reaction was then centrifuged at 2800×g for 10 minutes at room temperature to separate [^14C]-succinic acid in the supernatant from the precipitated [^14C]-dinitrophenylhydrazone. Fractions of the supernatant (400 μl) were counted using a beta counter (Beckman Coulter, Fullerton, Calif.).

[2] = test system: Hep-3B cells; test: Cellular assay: erythropoietin secretion in Hep-3B cells; assay type: cell-based, human; settings: Homo sapiens, Hep3B, 100 μM compound, 24 hours, percent of EPO secretion relative to assay control compound 7-[(4-Chloro-phenyl)-(5-methyl-isoxazol-3-ylamino)-methyl]-quinolin-8-ol, read-out: Cellular % EPO Stimulation
Procedure: Hep-3B cells (ATCC, Manassas, Va.) were plated in 96-well plates at 20,000 cells per well in 100 μl of DMEM containing 10% fetal bovine serum, 1% non-essential amino acids, 50 IU/mL of penicillin and 50 μg/mL of streptomycin (all cell culture reagents from Invitrogen, Carlsbad, Calif.). Twenty-four hours after plating, compounds were added and incubated for an additional 24 hours. All compounds were tested under saturating conditions with final compound concentrations at 100 μM. Fifty microliters of the supernatant was then transferred to a human Hypoxia assay kit (Meso-Scale Discovery, Gaithersburg, Md.). Erythropoietin in the supernatant was detected according to the manufacturer's instructions as follows. EPO detection plates were blocked with 3% BSA in PBS overnight and 50 μl of the supernatant was incubated at room temperature in an orbital shaker for 2 h. Twenty-five microliters of 0.5 μg/ml anti-EPO detection antibody was added for 2 hours at room temperature in an orbital shaker. After 3 washes in PBS, 150 μl of 1× read buffer is added and the plate is then read on the MSD SECTOR instrument.

Compound	IC50 [1] [nM]	Emax at 100 µM [2] [%]
O=C(O)c1cnn(-c2nc3ccc(Oc4ccc(Cl)cc4)cc3c(=O)[nH]2)c1 [Example 46, 1-[6-(4-Chloro-phenoxy)-4-oxo-3,4-dihydro-quinazolin-2-yl]-1H-pyrazole-4-carboxylic acid]	31.6	126
O=C(O)c1cnn(-c2nc3cc(F)c(Oc4ccccc4)c(F)c3c(=O)[nH]2)c1 [Example 64, 1-(5,7-Difluoro-4-oxo-6-phenoxy-3,4-dihydro-quinazolin-2-yl)-1H-pyrazole-4-carboxylic acid]	25.1	22
O=C(O)c1cnn(-c2nc3ccc(Oc4cccc(F)c4)cc3c(=O)[nH]2)c1 [Example 34, 1-[6-(3-Fluoro-phenoxy)-4-oxo-3,4-dihydro-quinazolin-2-yl]-1H-pyrazole-4-carboxylic acid]	25.1	73
O=C(O)c1cnn(-c2nc3ccc(-c4cccc(-c5ccccc5)c4)cc3c(=O)[nH]2)c1 [Example 70, 1-(6-Biphenyl-3-yl-4-oxo-3,4-dihydro-quinazolin-2-yl)-1H-pyrazole-4-carboxylic acid]	31.6	41
Cc1cc2nc(-n3cc(C(=O)O)cn3)[nH]c(=O)c2cc1Oc1cccc(-c2ccccc2)c1 [Example 91, 1-[6-(biphenyl-3-yloxy)-7-methyl-4-oxo-3,4-dihydro-quinazolin-2-yl]-1H-pyrazole-4-carboxylic acid]	25.1	75
Cc1ccc2nc(-n3cc(C(=O)O)cn3)[nH]c(=O)c2c1 [Example 8, 1-(6-Methyl-4-oxo-3,4-dihydro-quinazolin-2-yl)-1H-pyrazole-4-carboxylic acid]	39.8	14
O=C(O)c1cnn(-c2nc3ccc(Oc4cccnc4)cc3c(=O)[nH]2)c1 [Example 65, 1-[4-Oxo-6-(pyridin-3-yloxy)-3,4-dihydro-quinazolin-2-yl]-1H-pyrazole-4-carboxylic acid]	25.1	42
O=C(O)c1cnn(-c2nc3c(C(F)(F)F)cccc3c(=O)[nH]2)c1 [Example 16, 1-(4-Oxo-8-trifluoromethyl-3,4-dihydro-quinazolin-2-yl)-1H-pyrazole-4-carboxylic acid]	251	16
O=C(O)c1cnn(-c2nc3ccc(Cc4ccccc4)cc3c(=O)[nH]2)c1 [Example 105, 1-(6-benzyl-4-oxo-3,4-dihydro-quinazolin-2-yl)-1H-pyrazole-4-carboxylic acid]	31.6	129
Cc1cc(C)cc(Oc2cc3c(=O)[nH]c(-n4cc(C(=O)O)cn4)nc3cc2C)c1 [Example 89, 1-[6-(3,5-dimethyl-phenoxy)-7-methyl-4-oxo-3,4-dihydro-quinazolin-2-yl]-1H-pyrazole-4-carboxylic acid]	25.1	137
O=C(O)c1cnn(-c2nc3ccc(Oc4cccc(Cl)c4)cc3c(=O)[nH]2)c1 [Example 30, 1-[6-(3-Chloro-phenoxy)-4-oxo-3,4-dihydro-quinazolin-2-yl]-1H-pyrazole-4-carboxylic acid]	25.1	15
O=C(O)c1cnn(-c2nc3c(Cl)cccc3c(=O)[nH]2)c1 [Example 14, 1-(8-Chloro-4-oxo-3,4-dihydro-quinazolin-2-yl)-1H-pyrazole-4-carboxylic acid]	251	8
O=C(O)c1cnn(-c2nc3cc(Cl)c(Oc4cccc5ccccc45)cc3c(=O)[nH]2)c1 [Example 53, 1-[7-Chloro-6-(naphthalen-1-yloxy)-4-oxo-3,4-dihydro-quinazolin-2-yl]-1H-pyrazole-4-carboxylic acid]	31.6	45
O=C(O)c1cnn(-c2nc3ccc(OC(F)(F)F)cc3c(=O)[nH]2)c1 [Example 15, 1-(4-Oxo-6-trifluoromethoxy-3,4-dihydro-quinazolin-2-yl)-1H-pyrazole-4-carboxylic acid]	15.8	19

The next lines start with results.

IC50 [1] [nM]	Compound	Emax at 100 µM [2] [%]
50.1	O=C(O)c1cnn(-c2nc3cc(O)ccc3c(=O)[nH]2)c1 [Example 154, 1-(7-Hydroxy-4-oxo-3,4-dihydro-quinazolin-2-yl)-1H-pyrazole-4-carboxylic acid]	12
31.6	O=C(O)c1cnn(-c2nc3ccc(C(=O)N4CCCC4)cc3c(=O)[nH]2)c1 [Example 162, 1-[4-Oxo-6-(pyrrolidine-1-carbonyl)-3,4-dihydro-quinazolin-2-yl]-1H-pyrazole-4-carboxylic acid]	15
25.1	Cc1cccc(-c2ccc3nc(-n4cc(C(=O)O)cn4)[nH]c(=O)c3c2)c1 [Example 190, 1-(4-Oxo-6-m-tolyl-3,4-dihydro-quinazolin-2-yl)-1H-pyrazole-4-carboxylic acid]	91
251	O=C(O)c1cnn(-c2nc3c4c(ccc3c(=O)[nH]2)OCCO4)c1 [Example 138, 1-(8-Oxo-2,3,7,8-tetrahydro-1,4-dioxa-5,7-diaza-phenanthren-6-yl)-1H-pyrazole-4-carboxylic acid]	40
20	CCC(C)c1ccc2nc(-n3cc(C(=O)O)cn3)[nH]c(=O)c2c1 (stereo not shown) [Example 120, 1-(6-sec-Butyl-4-oxo-3,4-dihydro-quinazolin-2-yl)-1H-pyrazole-4-carboxylic acid]	68
50.1	O=C(O)c1cnn(-c2nc3cc4c(cc3c(=O)[nH]2)OCCCO4)c1 [Example 137, 1-(4-Oxo-3,4,8,9-tetrahydro-7H-6,10-dioxa-1,3-diaza-cyclohepta[b]naphthalen-2-yl)-1H-pyrazole-4-carboxylic acid]	15
126	O=C(O)c1cnn(-c2nc3cc(I)ccc3c(=O)[nH]2)c1 [Example 208, 1-(7-Iodo-4-oxo-3,4-dihydro-quinazolin-2-yl)-1H-pyrazole-4-carboxylic acid]	20
31.6	CS(=O)(=O)c1ccc2nc(-n3cc(C(=O)O)cn3)[nH]c(=O)c2c1 [Example 157, 1-(6-Methanesulfonyl-4-oxo-3,4-dihydro-quinazolin-2-yl)-1H-pyrazole-4-carboxylic acid]	17
31.6	Cc1cccc(C)c1CNc1ccc2nc(-n3cc(C(=O)O)cn3)[nH]c(=O)c2c1 [Example 175, 1-[6-(2,6-Dimethyl-benzylamino)-4-oxo-3,4-dihydro-quinazolin-2-yl]-1H-pyrazole-4-carboxylic acid]	97
25.1	O=C(O)c1cnn(-c2nc3ccc(-c4ccccc4F)cc3c(=O)[nH]2)c1 [Example 195, 1-[6-(2-Fluoro-phenyl)-4-oxo-3,4-dihydro-quinazolin-2-yl]-1H-pyrazole-4-carboxylic acid]	100
126	O=C(O)c1cnn(-c2nc3c(-c4ccccc4)cccc3c(=O)[nH]2)c1 [Example 111, 1-(4-Oxo-8-phenyl-3,4-dihydro-quinazolin-2-yl)-1H-pyrazole-4-carboxylic acid]	24
50.1	Cc1cccc(-c2ccc3c(=O)[nH]c(-n4cc(C(=O)O)cn4)nc3c2)c1 [Example 189, 1-(4-Oxo-7-m-tolyl-3,4-dihydro-quinazolin-2-yl)-1H-pyrazole-4-carboxylic acid]	25
